# Patent US20220324912A1, “THERAPEUTIC PEPTIDES” (COHBAR, INC., priority 2019, published 2022)
# Non-standard residues stand in square brackets, D forms with d. Residues, ends and D or L forms follow the SMILES beside them. No end group written: not given here.
# Experiments:
# 3T3-L1 mouse adipocytes = assay: Free Fatty Acid Levels in 3T3-L1 Mouse Adipocytes (Example 12, 10 μM); assay type: cell-based; conditions: peptides 10 μM, 20-22 hours then 3 hours with isoproterenol 1 nM, 3T3-L1 mouse adipocytes
# Description: The effect of the peptides on fatty acid metabolism can be assessed using an assay of free fatty acid levels in cultured cells such as mouse adipocytes. Peptides were initially prepared as 10 mM stock in DMSO, diluted to 1 mM in H2O, and used at a final concentration of 10 μM (0.1% DMSO). […] After 20-22 hours, 1 nM isoproterenol was added to all wells except untreated controls and test peptides were replenished. Insulin at 100 nM was added to control wells. […] Free fatty acid concentrations in the media were determined using a Free Fatty Acid Assay kit (Zen-Bio) according to the manufacturer's instructions using a Cytation 3 plate reader at 540 nm (BioTek, Winooski, Vt.). Absorbance values were corrected for untreated background and expressed relative to isoproterenol treated cells. Treatment with isoproterenol (1 nM) alone was used as the free fatty acid level stimulatory control. The relative standard deviation of the isoproterenol control was <10%. […] Free fatty acid levels for insulin (100 nM) treatment were <5% of the isoproterenol control value.
# C2C12 cells [1] = assay: Cellular ROS Levels Induced by TBHP in C2C12 Cells (DCFDA); assay type: cell-based, mouse; conditions: peptides 10 μM, 18-20 hours, then TBHP 100 μM 1 hour, relative to TBHP control
# Description: The protective or synergistic effect of the peptides on cellular levels of reactive oxygen species (ROS) induced by oxidative stress can be assessed using an assay of ROS in cultured cells such as mouse myoblasts exposed to a suitable oxidative stress. Peptides were initially prepared as 10 mM stock in DMSO, diluted to 1 mM in H2O, and added at a final concentration of 10 μM (0.1% DMSO). […] TBHP was used at final concentration of 100 μM. Sulforaphane at final concentration of 10 µM was used as a protective control against TBHP induced ROS production. […] C2C12 cells were grown in DMEM supplemented with 20% FBS with 100 IU/ml penicillin and 100 μg/ml streptomycin. […] C2C12 cells were seeded at 7,500 cells per well on 96-well plates. […] After 18-20 hours of incubation the cells were loaded with DCFDA for 45 min. TBHP at 100 μM was then added to the appropriate wells for 1 hour. ROS activity was determined using a DCFDA Cellular ROS Detection Assay kit (Abcam, Cambridge, Mass.) according to the manufacturer's instructions. Fluorescence in each sample well on the plate was measured using a Cytation 3 plate reader at Ex/Em=485/535 nm (BioTek, Winooski, Vt.). Activity was calculated relative to TBHP control. The relative standard deviation of the sulforaphane control was <20%. The ROS level produced by the sulforaphane control in the presence of TBHP was 52% of the TBHP control.
# C2C12 cells [2] = assay: Cell Proliferation in C2C12 Cells (Cyquant DNA dye); assay type: cell-based, mouse; conditions: peptides 10 μM, 72 hours with readdition every 24 hours, relative to 0.1% DMSO control
# Description: The effect of the peptides on cell proliferation was assessed using a DNA dye binding assay in cultured cells such as mouse myoblast cells. Peptides were initially prepared as 10 mM stock in DMSO, diluted to 1 mM in H2O, and added at a final concentration of 10 μM (0.1% DMSO). Lovastatin was used as a growth arrest control at final concentration of […]. […] C2C12 cells were grown in DMEM supplemented with 20% FBS with 100 IU/ml penicillin and 100 μg/ml streptomycin. […] C2C12 cells were seeded at 800 cells per well on 96-well plates. […] Cell proliferation was determined using Cyquant Direct Nucleic Acid Stain (Thermo Fisher Scientific, Waltham, Mass.) according to the manufacturer's instructions. Fluorescence for each sample well on the plate was measured using a Cytation 3 plate reader at Ex/Em=495/535 nm (BioTek, Winooski, Vt.). Activity was calculated relative to 0.1% DMSO untreated control. The relative standard deviation for the lovastatin control was <27%. The cell proliferation for the lovastatin control was <25% of the value for untreated control.
# [3] = system: Caspase 3/7 in C2C12 cells; assay: Caspase 3/7 Activity in C2C12 Cells; assay type: cell-based, mouse; conditions: peptides 10 μM, 24 hours, relative to 0.1% DMSO control
# Description: The effect of the peptides on cell death/survival can be assessed using a caspase-3/7 assay in cultured cells such as mouse myoblast cells. Peptides were initially prepared as 10 mM stock in DMSO, diluted to 1 mM in H2O, and used at a final concentration of 10 μM (0.1% DMSO). […] Staurosporine (Abcam, Cambridge, Mass.) was dissolved at 10 mM in DMSO as a stock solution. Caspase-Glo 3/7 Assay Reagent was purchased from Promega (Madison, Wis.). C2C12 cell line was purchased from American Type Culture Collection (Manassas, Va.). C2C12 cells were grown in DMEM supplemented with 20% FBS with 100 IU/ml penicillin and 100 μg/ml streptomycin. Cultures were maintained at 37° C. in a humidified atmosphere of 5% CO2/95% air. C2C12 cells were seeded at 4,000 cells per well on 96-well plates. The next day cells were incubated with test peptides at 10 μM or staurosporine at concentrations between 100 nM and 5 nM using a final concentration of 0.1% DMSO and maintained at 37° C. in a humidified atmosphere of 5% CO2/95% air for 24 hours. Caspase 3/7 activity was determined using a Caspase-Glo 3/7 Assay kit according to the manufacturer's instructions. Luminescence for each sample well on the plate was measured using a Cytation 3 plate reader (BioTek, Winooski, Vt.). Activity was calculated relative to 0.1% DMSO control.
# C2C12 cells [4] = assay: ATP Levels in Cultured C2C12 Cells (CellTiter-Glo); assay type: cell-based, mouse; conditions: peptides 10 μM, 3 days with readdition every 24 hours, relative to 0.1% DMSO control
# Description: The effect of the peptides on cellular metabolism can be assessed using an assay of ATP levels in cultured cells such as mouse myoblast cells. Peptides were initially prepared as 10 mM stock in DMSO, diluted to 1 mM in H2O, and used at a final concentration of 10 μM (0.1% DMSO). […] Lovastatin was prepared as 10 mM stock in 70% Ethanol and used at final concentration of 10 µM containing 0.1% DMSO. CellTiter-Glo® Assay kit was purchased from Promega (Madison, Wis.). […] C2C12 cells were grown in DMEM medium supplemented with 20% FBS with 100 IU/ml penicillin and 100 μg/ml streptomycin. […] C2C12 cells were seeded at 800 cells per well on 96-well plates. […] ATP levels were determined using a CellTiter-Glo Assay kit according to the manufacturer's instructions. Luminescence for each sample well on the plate was measured using a Cytation 3 plate reader (BioTek, Winooski, Vt.). Activity was calculated relative to 0.1% DMSO treated control. The relative standard deviation of the result for the 0.1% DMSO treated control was <5%. […] ATP levels for treatment with lovastatin (10 μM) were <50% of the 0.1% DMSO treated control value.
# [5] = system: Caspase 3/7 in MDA-MB-231 cells; assay: Caspase 3/7 Activity in MDA-MB-231 Cells (Caspase-Glo 3/7); assay type: cell-based, human; conditions: peptides 10 μM, 18 hours, relative to DMSO control
# Description: The effect of the peptides on cell death/survival can be assessed using a caspase-3 assay. Peptides were dissolved with DMSO at 10 mM stock. […] Staurosporine (Selleckchem) was dissolved with DMSO at 1 mM stock. Caspase-Glo 3/7 Assay Reagent was purchased from Promega (Madison, Wis.). MDA-MB-231 human breast cancer cell line was purchased from American Type Culture Collection (Manassas, Va.). MDA-MB-231 cells were grown in DMEM Medium supplemented with 10% FBS. 100 μg/ml penicillin and 100 μg/ml streptomycin were added to the culture medium. Cultures were maintained at 37° C. in a humidified atmosphere of 5% CO2 and 95% air. MDA-MB-231 cells were incubated with test peptides in duplicate at 10 μM at 37° C. in a humidified atmosphere of 5% CO2 and 95% air for 18 hours. 25 μl of Caspase-Glo 3/7 Assay Reagent was added to each well and incubated at 37° C., 5% CO2 for 1 hour. Luminescence for each sample well on the plate was measured by Envision 2104 Multilabel Reader (PerkinElmer, Santa Clara, Calif.). Activity was calculated relative to DMSO control.
# MCF-7 cells = conditions: human, 72 hours, 10 μM
# Description: Peptides and reference compound staurosporine (Selleckchem) were dissolved with DMSO at 10 mM stock. CellTiter 96® AQueous One Solution Reagent (MTS assay reagent) was purchased from Promega (Madison, Wis.). MCF-7 human breast cancer cell line was purchased from American Type Culture Collection (Manassas, Va.). MCF-7 cells were grown in EMEM Medium supplemented with 10% FBS and 0.01 mg/ml human recombinant insulin. 100 μg/ml penicillin and 100 μg/ml streptomycin were added to the culture medium. Cells were incubated with test peptides at 10 μM at 37° C. in a humidified atmosphere of 5% CO2 and 95% air for 72 hours. 5 μl of CellTiter 96® AQueous One Solution Reagent (MTS assay reagent) was added to each well and incubated at 37° C., 5% CO2 for 5 hours. Absorbance at 492 nm was recorded by Envision 2104 Multilabel Reader. Treatment with DMSO alone was used as the cell viability activity control.
# 3T3-L1 adipocytes = assay: Free Fatty Acid Levels in 3T3-L1 Adipocytes (Example 4, 25 μM); assay type: cell-based, mouse; conditions: peptides 25 μM, 20-22 hours then 3 hours with isoproterenol 1 nM, 3T3-L1 adipocytes
# Description: Following 12-15 days' differentiation, test peptides were added to a final concentration of 25 μM and incubated for 20-22 hours in Adipocyte Maintenance Medium. After 20-22 hours, isoproterenol (1 nM) was added to all wells except untreated controls and test peptides were replenished. Cells were incubated for a further 3 hours in Assay Buffer (Zen-Bio). Free fatty acid concentrations in the media were determined using a Free Fatty Acid Assay Kit (Zen-Bio) according to the manufacturer's instructions using a plate reader (540 nm). Absorbance values were corrected for untreated background and expressed relative to isoproterenol treated cells. Treatment with isoproterenol (1 nM) alone was used as the free fatty acid level stimulatory control. The relative standard deviation of the isoproterenol control was <10%. […] Free fatty acid levels for insulin (100 nM) treatment were <5% of the isoproterenol control value.
# MDA-MB-231 cells = assay: Cell viability, MTS Assay in MDA-MB-231 Cells; assay type: cell-based; conditions: human, 72 hours
# Description: Test compounds and reference compound staurosporine (Selleckchem) were all dissolved with DMSO at 10 mM stock. […] Activity was calculated relative to DMSO control. […] Cell viability was 3% of the DMSO control value for Staurosporine (10 uM).
Compound,"Free fatty acid levels, Percent of Isoproterenol Control Activity (3T3-L1 mouse adipocytes) [%]","Cellular ROS levels induced by TBHP, Percent of Control (C2C12 cells [1]) [%]","Cell proliferation, Percent of Control (C2C12 cells [2]) [%]","Caspase 3/7 activity, Percent of Control Activity [3] [%]","ATP levels, Percent of Control Activity (C2C12 cells [4]) [%]","Caspase 3/7 activity, Percent of Control Activity [5] [%]","MTS cell viability, Percent of Control Activity (MCF-7 cells) [%]","Free fatty acid levels, Percent of Control Value (percent isoproterenol control) (3T3-L1 adipocytes) [%]","MTS cell viability, Percent of Control Activity (MDA-MB-231 cells) [%]"
15 (LPGS[dA]ILTNPVLGWVWV) [compound 15],92.8,101.5,115.1,105.6,101.6,–,–,–,–
16 (PGS[dA]ILTNPVLGWVWV) [compound 16],97.2,106.0,100.3,99.7,102.7,–,–,–,–
CSCC[C@H](N)C(=O)N[C@H](C(=O)N[C@@H](Cc1ccccc1)C(=O)N[C@@H](CCC(N)=O)C(=O)N[C@@H](CCCCN)C(=O)N[C@H](C(=O)N[C@@H](Cc1c[nH]cn1)C(=O)N[C@@H](CC(N)=O)C(=O)N[C@@H](CC(C)C)C(=O)N[C@@H](CC(N)=O)C(=O)N[C@@H](CCC(N)=O)C(=O)N[C@@H](Cc1c[nH]cn1)C(=O)N[C@@H](CC(N)=O)C(=O)N[C@@H](Cc1c[nH]cn1)C(=O)N1CCC[C@H]1C(=O)N[C@@H](CCC(N)=O)C(=O)N1CCC[C@H]1C(=O)N[C@@H](CC(N)=O)C(=O)N[C@@H](Cc1ccc(O)cc1)C(=O)O)[C@@H](C)O)[C@@H](C)O [compound 20] (H-MTFQKTHNLNQHNHPQPNY-OH; N-terminus and C-terminus assumed),–,–,–,–,–,58,63,71,85
CC[C@H](C)[C@H](NC(=O)CNC(=O)[C@H](CCC(=O)O)NC(=O)[C@H](CCCNC(=N)N)NC(=O)CNC(=O)[C@H](Cc1c[nH]c2ccccc12)NC(=O)[C@@H]1CCCN1C(=O)[C@H](Cc1c[nH]cn1)NC(=O)CNC(=O)CNC(=O)[C@H](CCC(=O)O)NC(=O)[C@H](CO)NC(=O)[C@H](CC(C)C)NC(=O)[C@@H]1CCCN1C(=O)CNC(=O)[C@H](CCCCN)NC(=O)[C@@H](NC(=O)[C@@H](NC(=O)[C@@H](N)CCSC)C(C)C)C(C)C)C(=O)O [compound 25] (H-MVVKGPLSEGGHPWGREGI-OH; N-terminus and C-terminus assumed),–,–,–,–,–,46,40,61,76
CC[C@H](C)[C@H](NC(=O)[C@H](C)NC(=O)[C@H](Cc1c[nH]c2ccccc12)NC(=O)[C@@H](N)CCSC)C(=O)N[C@@H](CC(=O)O)C(=O)N[C@@H](CCC(=O)O)C(=O)N[C@@H](CCCCN)C(=O)N[C@@H](C)C(=O)N[C@H](C(=O)N[C@@H](CCC(=O)O)C(=O)N[C@@H](C)C(=O)N[C@@H](CO)C(=O)NCC(=O)N[C@@H](CCC(=O)O)C(=O)O)C(C)C [compound 30] (H-MWAIDEKAVEASGE-OH; N-terminus and C-terminus assumed),–,–,–,–,–,50,61,85,76
